Laboratory results as given in patent US12569500B2, “Combination comprising tricycle compound and use thereof in preparation of medicament for treating HBV” (FUJIAN AKEYLINK BIOTECHNOLOGY CO., LTD., priority 2020, dated 2026).
Like-named read-outs stand apart in the source and are kept apart here.

How the values were obtained:
[1] = test system: HBsAg; assay: Single agent anti-HBV activity, HBsAg in supernatant by ELISA, HepG2.2.15 cells; type: cell-based; settings: Hepatitis B virus, HepG2.2.15, 192 h, read-out: HBsAg EC50
Protocol: (§1) Cell line: HepG2.2.15 cells are constructed and provided by WuXi AppTec. The cell culture medium is DMEM/F12 medium supplemented with 2% fetal bovine serum, 2 mM glutamine, 1×non-essential amino acids, 100 U/mL penicillin and 100 µg/mL streptomycin.
(§2) 2.1.1 On the first day, HepG2.2.15 cells were seeded into a 96-well cell culture plate at a density of 60,000 cells/well, and then the cells were cultured overnight at 5% CO2 and 37° C. On the second day, the compound 1 and the compound of formula (IIb) and the compound of formula (IIIb) were diluted and added to a 96-well plate. Each combination was a three-fold plate. The cells were cultured under 5% CO2 and 37° C. for 3 days. On the 5th day, a new culture medium containing the compound was replaced, and the supernatant was collected on the 8th day. The HBsAg in the supernatant was detected by ELISA, and the DNA in the supernatant was extracted at the same time, and the content of HBV DNA in the supernatant was detected by quantitative PCR. After collecting the cell supernatant, add CellTiter-Glo to detect cell viability.

[2] = Pharmacokinetic analysis of test compounds in AAV/HBV model mice; type: in vivo, C57BL/6 mice
[3] = test system: HBV; assay: Single agent anti-HBV activity, HBV DNA in supernatant by quantitative PCR, HepG2.2.15 cells; type: cell-based; settings: Hepatitis B virus, 192 h, day 8
Protocol: as §1, §2

[4] = test system: HBV; assay: AAV/HBV mouse model, anti-hepatitis B virus efficacy in vivo (serum/liver HBV DNA, serum HBV RNA); design: species or system C57BL/6 mice
Protocol: 5-week-old male C57BL/6 mice without specific pathogen level, purchased from Shanghai Slack Laboratory Animal Co., Ltd.
Compound 1 was added with an appropriate amount of the above-mentioned solvent, and a uniform particle suspension was obtained after vortexing, and the preparation concentration was 1.0, 3.0 and 10.0 mg/mL. Store at 4° C. until used. Compound 1 is calculated according to the salt coefficient of 1.0 and the purity of 100%.
Tenofovir disoproxil (TDF) was purchased from Shanghai Panhong Chemical Technology Co., Ltd. Weigh an appropriate amount of TDF and dissolve it in physiological saline to prepare a 1 mg/mL mother liquor, vortex until TDF is fully dissolved, dispense into 1 mL size and store at −20° C. Take 1 mL of mother liquor before each administration, and dilute the working solution 10 times to 0.1 mg/mL with normal saline for the day's administration.
rAAV8-1.3HBV (Type D, ayw) was purchased from Beijing Wujiahe Institute of Molecular Medicine, batch number x2018032301, 1×10^12 viral genome (v.g.)/mL. Dilute with sterile PBS to 5×10^11 v.g./mL before the experiment. Each mouse was injected with 200 μL, that is, each mouse was injected with 1×10^11 v.g.
AAV/HBV injection: rAAV8-1.3HBV is pre-prepared with sterile PBS to a concentration of 1×10^11 v.g./200 μL solution before injection.
Infection level detection: On days 14 and 21 after virus injection, about 120 μL of blood was collected from the submandibular vein for all infected mice to collect serum. After the whole blood was incubated in a 37° C. incubator for 30 minutes, the blood was centrifuged at 13,200×g for 3 minutes at 4° C. to collect about 30 μL of serum. The serum is stored at −80° C. for the detection of HBV DNA, HBeAg and HBsAg.
Grouping: On the 28th day after virus injection, according to the levels of HBV DNA, HBsAg and HBeAg in serum samples on the 14th and 21st days after virus injection, and the body weight of the mice.
Definition of experimental days: the day of the first dosing is set to day 0 of the experiment.
Serum sample preparation: After the blood sample was incubated at 37° C. for about 30 minutes, centrifuged at 4° C., 13,200 g for 3 minutes, and the separated supernatant was quickly frozen in dry ice.
Blood was collected from the heart to collect serum for HBV DNA detection and detection of HBV RNA levels in groups 1 and 4.
3. Quantitative PCR detection of HBV DNA content in mouse serum and liver:
Data analysis: The data is expressed as the average value standard error of each group of samples. Unless otherwise specified, groups 1-6: n=8. Use Student's t test for statistical analysis.

[5] = test system: HepG2.2.15 cells; assay: CellTiter-Glo cytotoxicity of compound 1 / TDF combination; type: cell-based
Protocol: 1.1 Day 1, HepG2.2.15 cells were seeded into a 96-well cell culture plate at a density of 40,000 cells/well, and then the cells were cultured overnight at 5% CO2 and 37° C.
1.2 Day 2, the compound 1 and TDF were combined with 7 different concentrations (selected about 8×, 4×, 2×, 1×, 0.5×, 0.25×, 0.125×EC50 concentration gradient) for orthogonal proportioning, and added to 96-well plate, each combination is 3 double plates, and the final concentration of DMSO is 0.5%.
1.3 Day 5, the cell supernatant was discarded, a fresh medium containing the compound was added, and the cells were cultured under 5% CO2, 37° C. for 3 days. On the 8th day, the supernatant from the cell plate treated with the compound was extracted according to the QIAamp 96 DNA Blood Kit (12) instruction.
MacSynegy software (Prichard et al., 1990) was used to process the HBV DNA copy number test data and analyze the effect parameters of compound 1 and TDF in combination. The CellTiter-Glo kit was used to detect the cytotoxicity of the compounds to HepG2.2.15 cells. According to the kit instructions, use a multifunctional microplate reader to detect the chemiluminescence intensity (RLU) of each cell well.

[6] = Single agent cytotoxicity, CellTiter-Glo; type: cell-based; settings: human, HepG2.2.15 cells
Protocol: as §1, §2

[7] = 10 mg/kg, BID, AAV/HBV model mice, day 27
[8] = C57BL/6, mouse, serum, po, 10 mg/kg, BID, AAV/HBV model mice, day 27
[9] = 100 mpk BID, after 28 days of dosage, vs solvent group

**Q.** Which results are given for `Cc1cc2n(c1)S(=O)(=O)c1ccc(C(=O)NCC[C@H]3COCCO3)cc1NC2=O` [Compound 1]?
**A.** EC50 [1]: > 1000 nM; AUC0-inf/AUC0-last [2, 7]: 101%; Tlast [2, 7]: 24.0 h; T 1/2 calculation time range ([2]; 10 mg/kg, BID, AAV/HBV model mice, day 27, in h): 9-24; AUC(0-t) ([2]; C57BL/6, mouse, serum, po, 10 mg/kg, BID, AAV/HBV model mice, day 27, read-out: AUC0-8): 26 µM·h; AUC(0-t) ([2]; C57BL/6, mouse, serum, po, 10 mg/kg, BID, AAV/HBV model mice, day 27, read-out: AUC0-last): 47.3 µM·h; AUC(0-inf) [2, 8]: 47.6 µM·h; Cmax [2, 8]: 12200 nM; Tmax [2, 8]: 1 h; half-life [2, 8]: 2.23 h; MRT inf ([2]; C57BL/6, mouse, serum, po, 10 mg/kg, BID, AAV/HBV model mice, day 27, read-out: MRT0-inf): 6.36 h; MRT last ([2]; C57BL/6, mouse, serum, po, 10 mg/kg, BID, AAV/HBV model mice, day 27, read-out: MRT0-last): 6.27 h; concentration at 0 h ([2]; C57BL/6, mouse, serum, group 2, 10 mg/kg BID oral, day 27, 0 hours (before dosage), read-out: average drug concentration in the mouse serum): 78 nM; concentration at 4 h ([2]; C57BL/6, mouse, serum, group 2, 10 mg/kg BID oral, day 27, 4 hours after the first dosage, read-out: average drug concentration in the mouse serum): 1630 nM; concentration at 8 h ([2]; C57BL/6, mouse, serum, group 2, 10 mg/kg BID oral, day 27, 8 hours after the first dosage, read-out: average drug concentration in the mouse serum): 605 nM; concentration at 9 h ([2]; C57BL/6, mouse, serum, group 2, 10 mg/kg BID oral, day 27, 9 hours after the first dosage, read-out: average drug concentration in the mouse serum): 10300 nM; concentration at 12 h ([2]; C57BL/6, mouse, serum, group 2, 10 mg/kg BID oral, day 27, 12 hours after the first dosage, read-out: average drug concentration in the mouse serum): 1280 nM; concentration at 24 h ([2]; C57BL/6, mouse, serum, group 2, 10 mg/kg BID oral, day 27, 24 hours after the first dosage, read-out: average drug concentration in the mouse serum): 66 nM; EC50 [3]: 6.03 nM; serum HBV DNA content ([4]; 10 mpk BID (Group 2), after 7 days of dosage): remained stable after 7 days of dosage; HBV DNA content in the liver ([4]; 10 mpk BID, after 28 days of dosage, vs solvent group): decreased; serum HBV DNA content ([4]; 30 mpk BID, after 7 days of dosage): remained stable after 7 days of dosage; HBV DNA content in the liver ([4]; 30 mpk BID, after 28 days of dosage, vs solvent group): decreased; serum HBV DNA content ([4]; 100 mpk BID, 7-28 days after dosage, vs solvent group, p<0.01): significantly lower than that in the solvent group; HBV DNA content in the liver [4, 9]: decreased; HBV RNA content in the serum [4, 9]: decreased; mouse serum and liver HBV DNA ([4]; compared with the solvent control group): significantly reduced; serum HBV DNA content, trend over doses ([4]; low (10 mpk), medium (30 mpk), high (100 mpk) dose groups BID vs solvent group, after 3 days of dosage): dose-dependent trend; average cell viability percentage ([5]; Compound 1 0.533 nM + TDF 0 nM): 121.5%; average cell viability percentage ([5]; Compound 1 1.065 nM + TDF 0 nM): 128.1%; average cell viability percentage ([5]; Compound 1 2.131 nM + TDF 0 nM): 124.5%; average cell viability percentage ([5]; Compound 1 4.261 nM + TDF 0 nM): 125.1%; average cell viability percentage ([5]; Compound 1 8.522 nM + TDF 0 nM): 124.3%; average cell viability percentage ([5]; Compound 1 17.04 nM + TDF 0 nM): 123.1%; average cell viability percentage ([5]; Compound 1 34.09 nM + TDF 0 nM): 115.2%; CC50 at 6 days [6]: > 1000 nM
